Assay results reported in patent US6825326B2, “PSCA: prostate stem cell antigen and uses thereof” (The Regents of the University of California, priority 1997, dated 2004).

Columns and labels:
[1] = LD50 experiment to determine the maximum tolerable dose; type: in vivo, mice
Method: An LD50 experiment was performed to determine the maximum tolerable dose of doxorubicin. Doxorubicin (Sigma) and was resuspended in sterile PBS. Doxorubicin was administered by intraperitoneal injection, at the following doses: 50 μg, 25 μg, 12.5 μg, and 6.75 μg. […] At the lower dose ranges, the mice survived for more than 4 weeks. The maximal tolerable dose was 25 μg.

[2] = tested on: PC3-PSCA tumors; assay: Established subcutaneous PC3-PSCA tumors; conditions: day 43; 1G8 1 mg 3×/week 3 weeks; doxorubicin 25 μg once weekly 3 weeks
Method: PC3-PSCA cells were derived by retroviral gene transfer. […] Amphotropic retrovirus was generated by co-transfection of 293T cells with pSR-α containing PSCA and a retroviral helper plasmid containing the amphotropic envelope protein. PC3 cells were subsequently infected with the PSCA containing amphotropic retrovirus, and 48 hours after infection the cells were selected by growth in medium containing the neomycin analogue G418. After 2-3 weeks of selection and expansion, a Western blot was performed to confirm that the PC3-PSCA cells express PSCA protein.
PC3-PSCA cells were grown in T-150 flasks in DMEM+10% FBS prior to the injections. The cells were grown to log phase, harvested, washed, counted, then mixed with Matrigel at a 1:1 dilution, and kept on ice. For injection, male IcR-SCID mice were shaved on their flanks, and each mouse received a single subcutaneous injection of about 1×10^6 cells in a volume of 100 μl on the right flank. The growth of PC3-PSCA tumors was followed by caliper measurements of the growing tumors. The mice were selected for treatment when the tumor reached the size of 100-200 mm^3, at approximately 9 days after the subcutaneous injection. The tumor size was measured at days +9, +15, +23, +29, +36, and +43 post injection.
The mice treated with 1G8, were administered 1 mg of 1G8, three times per week for three consecutive weeks. […]

## COc1cccc2c1C(=O)c1c(O)c3c(c(O)c1C2=O)C[C@@](O)(C(=O)CO)C[C@@H]3O[C@H]1C[C@H](N)[C@H](O)[C@H](C)O1 [doxorubicin]
[1]; 25 μg, 12.5 μg, 6.75 μg intraperitoneal
  survival at the lower dose ranges: more than 4 weeks
[1]; 50 μg intraperitoneal
  mortality at the highest dose: all the mice died within 2 weeks
[1]; intraperitoneal injection
  maximal tolerable dose: 25 µg
[2]
  growth inhibition compared to PBS: 4%
